Test results published in patent US12421211B2, “Heterocyclic compounds” (Hoffmann-La Roche Inc., priority 2021, dated 2025).
Counter-ions that a name gives are not always drawn. Like-named read-outs stand apart in the source and are kept apart here.

System: Acinetobacter baumannii ATCC17961
Experiment: Antimicrobial susceptibility testing: 90% growth inhibitory concentration (IC90) determination
Format: cell-based
Settings: read-out: ATCC 17961 IC90
How it was run: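 A. baumannii ATCC17961 at ~5×10^5 CFU/ml in Iso-Sensitest broth exposed to 10-point twofold dilutions (e.g. 50–0.097 μM final), 35±2° C. OD600 read every 20 minutes over 16h; IC50 and IC90 derived from inhibition during logarithmic growth.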

[1] = Acinetobacter baumannii, ATCC17961, 16 h, 90% growth inhibitory concentration, Acinetobacter baumannii ATCC17961, Iso-Sensitest broth, OD 600 nm over 16 h
[2] = Acinetobacter baumannii, ATCC17961, 16 h
[3] = 90% growth inhibitory concentration, Acinetobacter baumannii ATCC17961, Iso-Sensitest broth, OD 600 nm over 16 h

IC90 [1] | Compound | IC90 [2] | further results
22 nM | Cc1n[nH]cc1-c1ccc(-c2cnc(C(=O)Nc3ccc(C(=O)N4CCN(C(=O)C5CC[N+](C)(CC6CNC6)CC5)CC4)c(Cl)c3)n2C)c(F)c1F (centres unmarked) [Example J1, N-[4-[4-[1-(azetidin-3-ylmethyl)-1-methyl-piperidin-1-ium-4-carbonyl]piperazine-1-carbonyl]-3-chloro-phenyl]-5-[2,3-difluoro-4-(3-methyl-1H-pyrazol-4-yl)phenyl]-1-methyl-imidazole-2-carboxamide; formate] |  | 
600 nM | Cc1nn(CCOCCN)c(C)c1-c1ccc(-c2cnc(C(=O)Nc3ccc(C(=O)N4CCN(C(=O)[C@@H]5C[C@@H](O)C[N+]5(C)C)CC4)c(Cl)c3)n2C)c(F)c1F [Example K1, 5-[4-[1-[2-(2-aminoethoxy)ethyl]-3,5-dimethyl-pyrazol-4-yl]-2,3-difluoro-phenyl]-N-[3-chloro-4-[4-[(2S,4R)-4-hydroxy-1,1-dimethyl-pyrrolidin-1-ium-2-carbonyl]piperazine-1-carbonyl]phenyl]-1-methyl-imidazole-2-carboxamide; 2,2,2-trifluoroacetate] |  | 
360 nM | Cc1nn(CCOC(F)F)c(C)c1-c1ccc(-c2cnc(C(=O)Nc3ccc(C(=O)N4CCN(C(=O)C5C[C@@H](O)C[N+]5(C)C)CC4)c(Cl)c3)n2C)c(F)c1F (stereo partly drawn) [Example K2, N-[3-chloro-4-[4-[(4R)-4-hydroxy-1,1-dimethyl-pyrrolidin-1-ium-2-carbonyl]piperazine-1-carbonyl]phenyl]-5-[4-[1-2-(difluoromethoxy)ethyl]-3,5-dimethyl-pyrazol-4-yl]-2,3-difluoro-phenyl]-1-methyl-imidazole-2-carboxamide; formate] |  | 
300 nM | Cc1nn(CC2CC2(F)F)c(C)c1-c1ccc(-c2cnc(C(=O)Nc3ccc(C(=O)N4CCN(C(=O)C5C[C@@H](O)C[N+]5(C)C)CC4)c(Cl)c3)n2C)c(F)c1F (stereo partly drawn) [Example K3, N-[3-chloro-4-[4-[(4R)-4-hydroxy-1,1-dimethyl-pyrrolidin-1-ium-2-carbonyl]piperazine-1-carbonyl]phenyl]-5-[4-[1-2,2-difluorocyclopropyl)methyl]-3,5-dimethyl-pyrazol-4-yl]-2,3-difluoro-phenyl]-1-methyl-imidazole-2-carboxamide; formate] |  | 
206 nM | Cc1nn(CC(=O)Nc2ccc(F)nn2)cc1-c1ccc(-c2cnc(C(=O)Nc3ccc(C(=O)N4CCN(C(=O)C5CC[N+](C)(C)CC5)CC4)c(Cl)c3)n2C)cc1 [Example L1, N-[3-chloro-4-[4-(1,1-dimethylpiperidin-1-ium-4-carbonyl)piperazine-1-carbonyl]phenyl]-5-[4-[1-[2-[(6-fluoropyridazin-3-yl)amino]-2-oxo-ethyl]-3-methyl-pyrazol-4-yl]phenyl]-1-methyl-imidazole-2-carboxamide; formate] |  | 
 | Cc1nn(CC(=O)Nc2ccc(F)nn2)cc1-c1ccc(-c2cnc(C(=O)Nc3ccc(C(=O)N4CCN(C(=O)C5CC[N+](C)(C)CC5)CC4)c(Cl)c3)n2C)cc1F [Example L2, N-[3-chloro-4-[4-(1,1-dimethylpiperidin-1-ium-4-carbonyl)piperazine-1-carbonyl]phenyl]-5-[3-fluoro-4-[1-[2-[(6-fluoropyridazin-3-yl)amino]-2-oxo-ethyl]-3-methyl-pyrazol-4-yl]phenyl]-1-methyl-imidazole-2-carboxamide; formate] | 168 nM | 
 | Cc1ccc(NC(=O)Cn2cc(-c3ccc(-c4cnc(C(=O)Nc5ccc(C(=O)N6CCN(C(=O)C7CC[N+](C)(C)CC7)CC6)c(Cl)c5)n4C)c(F)c3F)c(C)n2)nn1 [Example L3, N-[3-chloro-4-[4-(1,1-dimethylpiperidin-1-ium-4-carbonyl)piperazine-1-carbonyl]phenyl]-5-[2,3-difluoro-4-[3-methyl-1-[2-[(6-methylpyridazin-3-yl)amino]-2-oxo-ethyl]pyrazol-4-yl]phenyl]-1-methyl-imidazole-2-carboxamide; formate] | 264 nM | 
 | COc1ccc(NC(=O)Cn2cc(-c3ccc(-c4cnc(C(=O)Nc5ccc(C(=O)N6CCN(C(=O)C7CC[N+](C)(C)CC7)CC6)c(Cl)c5)n4C)c(F)c3F)c(C)n2)nn1 [Example L4, N-[3-chloro-4-[4-(1,1-dimethylpiperidin-1-ium-4-carbonyl)piperazine-1-carbonyl]phenyl]-5-[2,3-difluoro-4-[1-[2-[(6-methoxypyridazin-3-yl)amino]-2-oxo-ethyl]-3-methyl-pyrazol-4-yl]phenyl]-1-methyl-imidazole-2-carboxamide; formate] | 106 nM | 
 | Cc1nn(CC(=O)Nc2ccc(N3CCOCC3)nn2)cc1-c1ccc(-c2cnc(C(=O)Nc3ccc(C(=O)N4CCN(C(=O)C5CC[N+](C)(C)CC5)CC4)c(Cl)c3)n2C)c(F)c1F [Example L5, N-[3-chloro-4-[4-(1,1-dimethylpiperidin-1-ium-4-carbonyl)piperazine-1-carbonyl]phenyl]-5-[2,3-difluoro-4-[3-methyl-1-[2-[(6-morpholinopyridazin-3-yl)amino]-2-oxo-ethyl]pyrazol-4-yl]phenyl]-1-methyl-imidazole-2-carboxamide; formate] | 374 nM | 
 | Cc1nn(CC(=O)Nc2ccc(F)nn2)cc1-c1ccc(-c2cnc(C(=O)Nc3ccc(C(=O)N4CCN(C(=O)C5CC[N+](CC(=O)O)(CC6CNC6)CC5)CC4)c(Cl)c3)n2C)c(F)c1F (stereo not drawn) [Example L6, cis 2-[1-(azetidin-3-ylmethyl)-4-[4-[2-chloro-4-[[5-[2,3-difluoro-4-[1-[2-[(6-fluoropyridazin-3-yl)aminol-2-oxo-ethyl]-3-methyl-pyrazol-4-yl]phenyl]-methyl-imidazole-2-carbonyl]amino]benzoyl]piperazine-1-carbonyl]piperidin-1-ium-1-yl]acetic acid; formate] |  | IC90 [3]: 197 nM
152 nM | Cc1ccc(NC(=O)NCCn2cc(-c3ccc(-c4cnc(C(=O)Nc5ccc(C(=O)N6CCN(C(=O)C7CC[N+](C)(C)CC7)CC6)c(Cl)c5)n4C)c(F)c3F)c(C)n2)cn1 [Example M1, N-[3-chloro-4-[4-(1,1-dimethylpiperidin-1-ium-4-carbonyl)piperazine-1-carbonyl]phenyl]-5-[2,3-difluoro-4-[3-methyl-1-[2-[(6-methyl-3-pyridyl)carbamoylamino]ethyl]pyrazol-4-yl]phenyl]-1-methyl-imidazole-2-carboxamide formate] |  | 
189 nM | Cc1c(-c2cnc(C(=O)Nc3ccc(C(=O)N4CCN(C(=O)CCC[N+](C)(CC(=O)O)CC5CNC5)CC4)c(Cl)c3)n2C)ccc(-c2cnn(CCOC(F)F)c2C)c1F (centres unmarked) [Example N1, azetidin-3-ylmethyl-(carboxymethyl)-[4-[4-[2-chloro-4-[[5-[4-[1-[2-(difluoromethoxy)ethyl]-5-methyl-pyrazol-4-yl]-3-fluoro-2-methyl-phenyl]-1-methyl-imidazole-2-carbonyl]amino]benzoyl]piperazin-1-yl]-4-oxo-butyl]-methyl-ammonium; formic acid; formate] |  | 
 | Cc1c(-c2cnc(C(=O)Nc3ccc(C(=O)N4CCN(C(=O)C5CC[N+](CC(=O)O)(CC6CNC6)CC5)CC4)c(Cl)c3)n2C)ccc(-c2cnn(CCOC(F)F)c2C)c1F (centres unmarked) [Example N2, 2-[1-(azetidin-3-ylmethyl)-4-[4-[2-chloro-4-[[5-[4-[1-[2-(difluoromethoxy)ethyl]-5-methyl-pyrazol-4-yl]-3-fluoro-2-methyl-phenyl]-1-methyl-imidazole-2-carbonyl]amino]benzoyl]piperazine-1-carbonyl]piperidin-1-ium-1-yl]acetic acid; formate] | 183 nM | 
 | Cc1c(-c2cnc(C(=O)Nc3ccc(C(=O)N4CCN(C(=O)CCC[N+](C)(CCCN)CC(=O)O)CC4)c(Cl)c3)n2C)ccc(-c2cnn(CCOC(F)F)c2C)c1F (centres unmarked) [Example N3, 3-aminopropyl-(carboxymethyl)-[4-[4-[2-chloro-4-[[5-[4-[1-[2-(difluoromethoxy)ethyl]-5-methyl-pyrazol-4-yl]-3-fluoro-2-methyl-phenyl]-1-methyl-imidazole-2-carbonyl]amino]benzoyl]piperazin-1-yl]-4-oxo-butyl]-methyl-ammonium; formate] | 352 nM | 
 | Cc1nn(CCOC(F)F)cc1-c1ccc(-c2cnc(C(=O)Nc3ccc(C(=O)N4CCN(C(=O)C5CC[N+](CC(=O)[O-])(CC6CNC6)CC5)CC4)c(Cl)c3)n2C)c(F)c1F (stereo not drawn) [Example N4, cis 2-[1-(azetidin-3-ylmethyl)-4-[4-[2-chloro-4-[[5-[4-[1-[2-(difluoromethoxy)ethyl]-3-methyl-pyrazol-4-yl]-2,3-difluoro-phenyl]-1-methyl-imidazole-2-carbonyl]amino]benzoyl]piperazine-1-carbonyl]piperidin-1-ium-1-yl]acetate] |  | IC90 [3]: 108 nM
 | COCCn1ncc(-c2ccc(-c3cnc(C(=O)Nc4ccc(C(=O)N5CCC(N(C)C(=O)C6CC[N+](CC(=O)O)(CC7CNC7)CC6)CC5)c(Cl)c4)n3C)c(F)c2F)c1C (centres unmarked) [Example O1, 2-[1-(azetidin-3-ylmethyl)-4-[[1-[2-chloro-4-[[5-[2,3-difluoro-4-[1-(2-methoxyethyl)-5-methyl-pyrazol-4-yl]phenyl]-1-methyl-imidazole-2-carbonyl]amino]benzoyl]-4-piperidyl]-methyl-carbamoyl]piperidin-1-ium-1-yl]acetic acid formate] | 354 nM | 
 | COCCn1ncc(-c2ccc(-c3cnc(C(=O)Nc4ccc(C(=O)N[C@H]5[C@@H]6CN(C(=O)C7CC[N+](CC(=O)O)(CC8CNC8)CC7)C[C@@H]65)c(Cl)c4)n3C)c(F)c2F)c1C (stereo partly drawn) [Example O2, 2-[1-(azetidin-3-ylmethyl)-4-[(1S,5R) 6-[[2-chloro-4-[[5-[2,3-difluoro-4-[1-(2-methoxyethyl)-5-methyl-pyrazol-4-yl]phenyl]-1-methyl-imidazole-2-carbonyl]amino]benzoyl]amino]-3-azabicyclo[3.1.0]hexane-3-carbonyl]piperidin-1-ium-1-yl]acetic acid formate] | 362 nM | 
